In patent publication US11767374B2, “Method and use of Radix puerariae polysaccharide in promoting lipid-lowering activity” (JIANGXI UNIVERSITY OF TRADITIONAL CHINESE MEDICINE, priority 2020, dated 2023) one finds HDL-C, LDL-C and TG data, which are given here for one molecule.

For this assay, the system named is high-cholesterol hyperlipidemia rats. Description: In vivo lipid-lowering experiment in high-cholesterol hyperlipidemia rats. The following applies: plasma, positive drug 8 mg/kg, half a month. Also noted: species or system Wistar rats. The text has this:
56 male Wistar rats (8 weeks old, body weight: 200 g±20 g) were purchased from Beijing Vital River Laboratory Animal Technology Co., Ltd. All animals were fed with a normal diet adaptively for 1 week.
The rats were sampled every half month to determine the plasma total triglyceride (TG), total cholesterol (TC), low-density lipoprotein (LDL-C), and high-density lipoprotein (HDL-C) levels. 2 months later, all rats were anesthetized with isoflurane, and then blood samples were collected from the orbital vein using capillary tubes. The blood samples were centrifuged (4° C., 4,000 r×min^−1, and 15 min) to obtain plasma samples, a kit (purchased from Nanjing Jiancheng Biotechnology Co., Ltd., China) was used to make a standard curve, and a chromogenic reaction was conducted according to specified steps to determine the plasma TG, TC, LDL-C, and HDL-C levels, thereby determining whether hyperlipidemia models were successfully constructed.
The rats were intragastrically administered for half a month. The night before the experiment, the rats were fasted; and on the day of the experiment, the rats were weighed and resulting body weights were recorded. The rats were anesthetized with isoflurane, then blood was collected from the orbit and placed in a heparin sodium centrifuge tube, and blood samples were centrifuged (4° C., 4,000 r×min^−1, and 15 min) to obtain plasma samples. A kit (purchased from Nanjing Jiancheng Biotechnology Co., Ltd., China) was used to make a standard curve, and the plasma TG, TC, LDL-C, and HDL-C levels were determined according to specified steps. The rats were sacrificed through cervical dislocation, and then a liver tissue was collected and weighed. A liver index was calculated according to the following formula: liver index=liver weight (g)/rat weight (g).
Data analysis: In this experiment, the SPSS11.5 version was used to analyze data (3 repetitions), and analysis of variance (ANOVA) and intergroup Duncan multiple comparison were adopted.

In the case of `CCC(C)(C)C(=O)O[C@H]1C[C@@H](C)C=C2C=C[C@H](C)[C@H](CC[C@@H]3C[C@@H](O)CC(=O)O3)[C@H]21` [Simvastatin, simvastatin], the HDL-C is given as 2.89 ± 0.44 b mmol/L, the LDL-C is on record as 0.51 ± 0.09 b mmol/L and the TG was 0.87 ± 0.27 c mg/mL.
